We go through 11 molecules from US8785638B2, “Thieno [2, 3-B] pyridine derivatives as viral replication inhibitors” (Katholieke Universiteit Leuven, priority 2009, dated 2014).

What is called IC50 is the concentration at which inhibition is half-maximal. As a reminder, the EC50 is the concentration giving half of the maximal effect. Read a high EC50 as weaker potency. Broadly, the CC50 is the concentration giving 50% cytotoxicity.

Where two headings read alike, the source gives them in different places.

Data set [1] deals with LEDGF/p75-HIV-1 integrase interaction (Human immunodeficiency virus type 1 group M subtype B (isolate HXB2) (HIV-1), UniProt P04585). Nature of the data set: AlphaScreen assay of LEDGF-integrase interaction inhibition. It counts as binding. An outline of the steps:
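Compounds (0.1 up to 100 μM) pre-incubated 30 min at 4° C. with 300 nM His6-integrase in pH 7.4 Tris buffer, then 100 nM flag-LEDGF/p75 added for 1 h at 4° C. Ni-chelate acceptor and anti-flag donor beads (20 μg/ml each) were incubated 1 h at 30° C. before reading AlphaScreen emission.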
(In Alpha technology, singlet oxygen from a donor bead excites a nearby acceptor bead.)

In data set [2] the test system is HIV-1 (IIIB), HIV-1 (NL4.3). Nature of the data set: microbe, parasite or virus in culture. It counts as cell-based. To be noted: for EC50: Human immunodeficiency virus 1, IIIB, MT4, MT-4 cells, 50% protection against HIV-induced cytopathogenic effect, MTT; for SI: selectivity index, ratio of CC50 to EC50. An outline of the steps: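 MT-4 cells infected with HIV-1 IIIB or NL4.3; protection from virus-induced cytopathic effect measured by MTT reduction, OD 540 nm. EC50 is the dose giving 50% protection; CC50 is the concentration cutting mock-infected absorbance by 50%; SI = CC50/EC50.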
A general note: Damage to the host cells serves as the signal in cytopathic effect assays.

Data set [3] in a line: Cytotoxicity in mock-infected MT-4 cells (MTT). It counts as cell-based. To be noted: human, 50% cytotoxic concentration. An outline of the steps: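 MT-4 cells (HTLV-1-transformed T4 line) in RPMI 1640 with 10% FCS, mock-infected alongside HIV-infected cultures. Viability read by in situ MTT reduction, OD 540 nm. CC50 is the compound concentration cutting mock-infected control absorbance by 50%.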

The mark [4] stands for this setting: His6-tagged integrase 300 nM, flag-LEDGF/p75 100 nM, read-out: Alphascreen IC50.

As for `COCCC(C(=O)O)c1c(C)nc2sc3c(c2c1-c1ccc(C)cc1)CCC3` (stereo not drawn) [Cpd 122, 2-[2-methyl-4-(p-tolyl)-6,7-dihydro-5H-cyclopenta[4,5]thieno[2,3-b]pyridin-3-yl]-4-O-methoxy-butanoic acid], the half-inhibitory concentration (IC50) in data set [1] (setting [4]) amounted to 3.2 µM. Also, in data set [2], a half-maximal response (EC50) required 5.3 µM and the SI is listed as 15. This molecule returned a CC50 in data set [3] of 79.8 µM.

In the case of `CCCC(c1c(C)nc2sc3c(c2c1-c1ccc(C)cc1)CCCC3)C1SC(=O)NC1=O` (stereo not drawn) [Cpd 182], the IC50 in data set [1] is ~80 µM. Moreover, the concentration giving a half-maximal response (EC50) in data set [2] is > 27.3 µM. For the same molecule, the CC50 in data set [3] is 27.3 µM.

Consider `CCCC(C(=O)O)c1c(-c2ccccc2)nc2sc3c(c2c1-c1ccc(C)cc1)CCC3` (stereo not drawn) [Cpd 126, 2-[2-phenyl-4-p-tolyl-6,7-dihydro-5H-cyclopenta[4,5]thieno[2,3-b]pyridin-3-yl]pentanoic acid], for which the IC50 in data set [1] (setting [4]) came to 56.3 µM. In addition, the EC50 in data set [2] was > 30.1 µM. In data set [3], this molecule came in with a CC50 of 30.1 µM.

Regarding `CCCC(C(=O)O)c1c(C)nc2sc3c(c2c1-c1ccc(CC)cc1)CCCC3` (stereo not drawn) [Cpd 149, 2-[2-Methyl-4-(4-ethylphenyl)-5,6,7,8-tetrahydro[1]benzothieno[2,3-b]pyridin-3-yl]pentanoic acid], the concentration for half-maximal inhibition (IC50) in data set [1] (setting [4]) stood at 74.4 µM. Moreover, in data set [2], the EC50 is > 67 µM. It took 67 µM to reach half-maximal cytotoxicity in data set [3] (CC50).

Regarding `Cc1ccc(-c2c(C(OC(C)(C)C)C(=O)O)c(C)nc3sc4c(c23)CCCC4)cn1` (stereo not drawn) [Cpd 184, 2-[2-methyl-4-(6-methylpyridin-3-yl)-5,6,7,8-tetrahydro[1]benzothieno[2,3-b]pyridin-3-yl]-2-tert-butoxyacetic acid], the IC50 in data set [1] (setting [4]) was 3.44 µM. Also, in data set [2], the EC50 is 0.157 µM and the SI is recorded as 1513. Further, the CC50 in data set [3] came out at 237 µM.

`CCCC(C(=O)O)c1c(C)nc2sc3c(c2c1-c1ccccc1)CCC3` (stereo not drawn) [Cpd 107, 2-[2-Methyl-4-phenyl-6,7-dihydro-5H-cyclopenta[4,5]thieno[2,3-b]pyridin-3-yl]pentanoic acid]: in data set [1] (setting [4]), the IC50 turned out to be 34.7 µM. Besides, in data set [2], a half-maximal response (EC50) required 13.2 µM and the SI is on record as 8. This molecule also came in with a CC50 in data set [3] of 75.7 µM.

Take `CCCC(C(=O)O)c1c(C)nc2sc3ccccc3c2c1-c1ccc(C)cc1` (stereo not drawn) [Cpd 120, 2-[2-Methyl-4-p-tolylbenzo[4,5]thieno[2,3-b]pyridin-3-yl]pentanoic acid]: the IC50 in data set [1] (setting [4]) worked out at 2.72 µM. Further, in data set [2], the EC50 stood at 1.51 µM and the SI came out at 67. In addition, the half-maximal cytotoxic concentration (CC50) in data set [3] came to 101 µM.

Take `CCCC(C(=O)O)c1c(C)nc2sc3c(c2c1-c1ccc(C)cc1O)CCCC3.N` (stereo not drawn) [Cpd 161, 2-[2-Methyl-4-(2-hydroxy-4-methylphenyl)-5,6,7,8-tetrahydro[1]benzothieno[2,3-b]pyridin-3-yl]pentanoate ammonium salt]: it took 0.0554 µM to reach half-maximal inhibition in data set [1] (IC50). Also, in data set [2], the concentration giving a half-maximal response (EC50) was 0.147 µM and the SI was 1061. This molecule had a cytotoxic concentration (CC50) in data set [3] of 157 µM.

For `Cc1ccc(-c2c(C(C(=O)O)C(C)C)c(C)nc3sc4c(c23)CCCC4)cc1` (stereo not drawn) [Cpd 156, 2-[2-Methyl-4-(p-tolyl)-5,6,7,8-tetrahydro[1]benzothieno[2,3-b]pyridin-3-yl]-3-methylbutanoic acid], in data set [1] (setting [4]), the IC50 stood at 59.6 µM. Besides, the EC50 in data set [2] is > 98 µM. This molecule also registered a CC50 in data set [3] of 98 µM.

Regarding `CCCC(C(=O)O)c1c(C)nc2sc3c(c2c1-c1ccc(C)cc1OC)CCCC3` (stereo not drawn) [Cpd 160, 2-[2-methyl-4-(2-methoxy-4-methylphenyl)-5,6,7,8-tetrahydro[1]benzothieno[2,3-b]pyridin-3-yl]pentanoic acid], the half-maximal inhibitory concentration (IC50) in data set [1] (setting [4]) was determined as 17.7 µM. Moreover, in data set [2], a half-maximal response (EC50) required 14.4 µM and the SI is 5. The same molecule yielded a 50% cytotoxic concentration (CC50) in data set [3] of 74 µM.

As for `CCCC(C(=O)NC#N)c1c(C)nc2sc3c(c2c1-c1ccc(C)cc1)CCCC3` (stereo not drawn) [Cpd 166, N-cyano-2-[2-Methyl-4-p-tolyl-5,6,7,8-tetrahydro[1]benzothieno[2,3-b]pyridin-3-yl]pentanamide], in data set [1] (setting [4]), the 50% inhibitory concentration (IC50) is 3 µM. Besides, the EC50 in data set [2] was > 131 µM. Moreover, the 50% cytotoxic concentration (CC50) in data set [3] is 131 µM.
